Source: US20050197338A1, “Substituted pyrazole urea compounds for the treatment of inflammation” (priority 2003, published 2005)
Where a name gives a salt, the structure may show the parent alone.

Each compound was assayed against T1, human IKK-2 (rhIKK-2 homodimer) (Homo sapiens, UniProt O14920) (assay: IKK-2 Resin Enzyme Assay (Human IKK-2 Enzyme Assay)). Details: human IKK-2, resin enzyme assay; read-out: IC50 (μM) hIKK-2.
T1 construct: FLAG (DYKDDDDKD) (C); made in house; host or cells: insect cells (baculovirus, pFastBac)
T1 sequence (O14920 1-756): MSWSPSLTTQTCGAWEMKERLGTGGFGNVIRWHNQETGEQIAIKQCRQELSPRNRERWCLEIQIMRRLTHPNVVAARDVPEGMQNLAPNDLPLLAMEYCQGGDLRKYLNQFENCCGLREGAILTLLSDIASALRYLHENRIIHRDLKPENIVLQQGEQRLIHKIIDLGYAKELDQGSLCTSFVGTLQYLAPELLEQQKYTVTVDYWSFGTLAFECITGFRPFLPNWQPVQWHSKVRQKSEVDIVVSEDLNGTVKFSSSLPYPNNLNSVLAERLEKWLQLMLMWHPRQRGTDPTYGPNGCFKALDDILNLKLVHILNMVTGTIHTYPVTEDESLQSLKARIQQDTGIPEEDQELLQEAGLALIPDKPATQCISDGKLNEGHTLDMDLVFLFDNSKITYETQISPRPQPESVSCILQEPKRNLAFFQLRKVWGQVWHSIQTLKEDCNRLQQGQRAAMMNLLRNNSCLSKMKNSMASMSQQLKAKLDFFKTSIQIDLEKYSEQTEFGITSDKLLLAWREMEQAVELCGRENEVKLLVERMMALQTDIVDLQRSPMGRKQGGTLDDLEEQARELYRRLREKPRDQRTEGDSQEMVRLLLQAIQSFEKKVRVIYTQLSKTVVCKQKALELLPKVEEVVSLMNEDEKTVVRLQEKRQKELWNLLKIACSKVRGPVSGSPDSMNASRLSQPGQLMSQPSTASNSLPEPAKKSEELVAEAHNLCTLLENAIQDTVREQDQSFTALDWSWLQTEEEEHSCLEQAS
Type: biochemical
Description: Materials: SAM^2™96 Biotin capture plates were from Promega. Anti-FLAG affinity resin, FLAG-peptide, NP-40 (Nonidet P-40), BSA, ATP, ADP, AMP, LPS (E. coli serotype 0111:B4), and dithiothreitol were obtained from Sigma Chemicals. Antibodies specific for NEMO (IKK-γ) (FL-419), IKK-1 (H-744), IKK-2(H-470) and IκBa(C-21) were purchased from Santa Cruz Biotechnology. Ni-NTA resin was purchased from Qiagen. Peptides were purchased from American Peptide Company. Protease inhibitor cocktail tablets were from Boehringer Mannheim. Sephacryl S-300 column was from Pharmacia LKB Biotechnology. Centriprep-10 concentrators with a molecular weight cutoff of 10 kDa and membranes with molecular weight cut-off of 30 kDa were obtained from Amicon. [γ-^33P] ATP (2500 Ci/mmol) and [γ-^32P] ATP (6000 Ci/mmol) were purchased from Amersham. The other reagents used were of the highest grade commercially available.
Cloning and Expression: cDNAs of human IKK-1 and IKK-2 were amplified by reverse transcriptase-polymerase chain reaction from human placental RNA (Clonetech). hlKK-1 was subcloned into pFastBac HTa (Life Technologies) and expressed as N-terminal His6-tagged fusion protein. The hlKK-2 cDNA was amplified using a reverse oligonucleotide primer which incorporated the peptide sequence for a FLAG-epitope tag at the C-terminus of the IKK-2 coding region (DYKDDDDKD). The hlKK-2:FLAG cDNA was subcloned into the baculovirus vector pFastBac. The rhIKK-2 ([…]) mutant was constructed in the same vector used for wild type rhIKK-2 using a QuikChange™ mutagenesis kit (Stratagene). Viral stocks of each construct were used to infect insect cells grown in 40 L suspension culture. […] Cell lysates were stored at −80° C. until purification of the recombinant proteins was undertaken as described below.
Enzyme Isolation: All purification procedures were carried out at 4° C. unless otherwise noted. Buffers used are: buffer A: 20 mM Tris-HCl, pH 7.6, containing 50 mM NaCl, 20 mM NaF, 20 mM β-Glycerophosphate, 500 μM sodium orthovanadate, 2.5 mM metabisulfite, 5 mM benzamidine, 1 mM EDTA, 0.5 mM EGTA, 10% glycerol, 1 mM DTT, 1× Complete™ protease inhibitors; buffer B: same as buffer A, except 150 mM NaCl, and buffer C: same as buffer A, except 500 mM NaCl.
Isolation of rhIKK-2 homodimer: A 10-liter culture of baculovirus-expressing IKK-2 tagged with FLAG peptide was centrifuged and the cell pellet (MOI=0.1 and 1=72 h) was re-suspended in buffer A. These cells were microfluidized, and centrifuged at 100,000×g for 45 min. Supernatant was passed over a G-25 column equilibrated with Buffer A. Protein peak was collected and incubated with anti-FLAG affinity resin on a rotator overnight in buffer B. The resin was washed in batch with 10-15 bed volumes of buffer C. Washed resin was poured into a column and rhIKK-2 homodimer was eluted using 5 bed volumes of buffer B containing FLAG peptide. 5 mM DTT, 0.1% NP-40 and BSA (concentrated to 0.1% in final amount) was added to the eluted enzyme before concentrating in using an Amicon membrane with a molecular weight cut-off of 30 kDa. Enzyme was aliquoted and stored at −80° C.
IKK-2 Resin Enzyme Assay: IKK-2 kinase activity was measured using a biotinylated IκBα peptide (Gly-Leu-Lys-Lys-Glu-Arg-Leu-Leu-Asp-Asp-Arg-His-Asp-Ser32-Gly-Leu-Asp-Ser36-Met-Lys-Asp-Glu-Glu) (American Peptide Co.). 20 μL of the standard reaction mixture contained 5 μM biotinylated IκBα peptide, 0.1 μCi/reaction [γ-^33P] ATP (Amersham) (about 1×10^5 cpm), 1 μM ATP (Sigma), 1 mM DTT (Sigma), 2 mM MgCl2 (Sigma), 2 mM MnCl2 (Sigma), 10 mM NaF (Sigma), 25 mM Hepes (Sigma) buffer, pH 7.6 and 20 μL enzyme solution and 10 μL inhibitor in a final volume of 50 μL. After incubation at 25° C. for 30 min, 150 μL resin (Dowex anion-exchange resin AG1X8 200-400 mesh) in 900 mM formate, pH 3.0 was added to each well to stop the reaction. Resin was allowed to settle for 1 h and 50 μL of supernatant was removed to a Micolite-2 flat bottom plate (Dynex). […]
`NC(=O)Nc1cn(-c2cc(Cl)ccc2F)nc1C(N)=O` [Example 246, 1-(5-chloro-2-fluoro-phenyl)-4-ureido-1H-pyrazole-3-carboxylic acid amide] gave an IC50 of 3.3 µM.
For `NC(=O)Nc1cn(-c2cccc(-c3cccc(C(N)=O)c3)c2)nc1C(N)=O` [Example 79, 4-[(aminocarbonyl)amino]-1-[3′-(aminocarbonyl)-1,1′-biphenyl-3-yl]-1H-pyrazole-3-carboxamide], the IC50 was 5.67 µM.
Work on `CC(=O)COc1cccc(-c2ccc(-n3cc(NC(N)=O)c(C(N)=O)n3)cc2)c1` [Example 253, 4-[(aminocarbonyl)amino]-1-[3′-(2-oxopropoxy)-1,1′-biphenyl-4-yl]-1H-pyrazole-3-carboxamide] yielded an IC50 of 1.01 µM.
With `NC(=O)Nc1cn(-c2cccc(-c3ccc(F)c(F)c3)c2)nc1C(N)=O` [Example 349, 4-[(aminocarbonyl)amino]-1-(3′,4′-difluoro-1,1′-biphenyl-3-yl)-1H-pyrazole-3-carboxamide] the IC50 was > 20 µM.
For `NC(=O)Nc1cn(-c2cccc(-c3ccccc3OCc3ccccc3)c2)nc1C(N)=O` [Example 86, 4-[(aminocarbonyl)amino]-1-[2′-(benzyloxy)-1,1′-biphenyl-3-yl]-1H-pyrazole-3-carboxamide], the IC50 was 5.91 µM.
In the case of `COc1cc(-c2cccc(-n3cc(NC(N)=O)c(C(N)=O)n3)c2)c(Cl)cn1` [Example 14, trifluoroacetate], the IC50 is reported as 8.95 µM.
`CC(C#N)Oc1ccc(F)cc1-c1ccc(-n2cc(NC(N)=O)c(C(N)=O)n2)cc1` (stereo not drawn) [Example 180, 4-[(aminocarbonyl)amino]-1-[2′-(1-cyanoethoxy)-5′-fluoro-1,1′-biphenyl-4-yl]-1H-pyrazole-3-carboxamide] gave an IC50 of 0.228 µM.
For `NC(=O)Nc1cn(-c2ccc(Cl)c(Cl)c2)nc1C(N)=O` [Example 188, 4-[(aminocarbonyl)amino]-1-(3,4-dichlorophenyl)-1H-pyrazole-3-carboxamide], the IC50 was 0.46 µM.
Compound `NC(=O)Nc1cn(-c2cccc(-c3ccc[nH]3)c2)nc1C(N)=O` [Example 68] has an IC50 of 0.55 µM.
Work on `CC(C#N)Oc1cccc(-c2ccc(-n3cc(NC(N)=O)c(C(N)=O)n3)cc2)c1` (stereo not drawn) [Example 169, 4-[(aminocarbonyl)amino]-1-[3′-(1-cyanoethoxy)-1,1′-biphenyl-4-yl]-1H-pyrazole-3-carboxamide] yielded an IC50 of 1.83 µM.
With `NC(=O)Nc1nn(-c2ccc(-c3cc(Cl)ccc3Cl)cc2)cc1C(N)=O` [Example 135] the IC50 was 1.66 µM.
Work on `NC(=O)Nc1cn(-c2ccc([S+]([O-])c3ccc(F)cc3)cc2)nc1C(N)=O` (stereo not drawn) [Example 200, 1-(1-(4-(4-fluorophenylsulfinyl)phenyl)-3-carbamoyl-1H-pyrazol-4-yl)urea] yielded an IC50 of 0.326 µM.
With `COc1cccc(-c2ccc(-n3cc(NC(N)=O)c(C(N)=O)n3)cc2)c1` [Example 107, 4-[(aminocarbonyl)amino]-1-(3′-methoxy-1,1′-biphenyl-4-yl)-1H-pyrazole-3-carboxamide] the IC50 was 0.651 µM.
`NC(=O)Nc1cn(-c2ccc(S(N)(=O)=O)cc2)nc1C(N)=O` [Example 301, 4-[(aminocarbonyl)amino]-1-[4-(aminosulfonyl)phenyl]-1H-pyrazole-3-carboxamide] showed an IC50 of 0.123 µM.
`NC(=O)Nc1nn(-c2ccc(-c3ccc(F)c(F)c3)cc2)cc1C(N)=O` [Example 114] was tested, and the IC50 was 3.19 µM.
Compound `NC(=O)Nc1cn(-c2ccc(-c3cccc(OCc4ccccn4)c3)cc2)nc1C(N)=O` [Example 168, 4-[(aminocarbonyl)amino]-1-[3′-(pyridin-2-ylmethoxy)-1,1′-biphenyl-4-yl]-1H-pyrazole-3-carboxamide] has an IC50 of 1.99 µM.
With `NC(=O)Nc1cn(-c2ccc(-c3cccnc3)cc2)nc1C(N)=O` [Example 21, 4-[(aminocarbonyl)amino]-1-(4-pyridin-3-ylphenyl)-1H-pyrazole-3-carboxamide] the IC50 was 2.86 µM.
With `CCc1cc(-c2cccc(O)c2)ccc1-n1cc(NC(N)=O)c(C(N)=O)n1` [Example 282, 4-[(aminocarbonyl)amino]-1-(3-ethyl-3′-hydroxy-1,1′-biphenyl-4-yl)-1H-pyrazole-3-carboxamide] the IC50 was 12.6 µM.
